Measurements from patent US10669272B2, “Substituted naphthyridinone compounds useful as T cell activators” (BRISTOL-MYERS SQUIBB COMPANY, priority 2018, dated 2020).
Like-named read-outs stand apart in the source and are kept apart here.

Tests used:
human DGKα = target: T1, human DGKα (Homo sapiens, UniProt P23743); test: DGKα LIPGLO assay (extruded liposome substrate), in vitro DGK inhibition; assay type: biochemical; conditions: read-out: DGKa LIPGLO IC50
T1 construct: TVMV protease cleavage site (C); Hexa-His (C); made in house; host or cells: Sf9 insect cells (baculovirus, Bac-to-Bac)

Human venous whole blood = test: Human whole blood IFN-γ assay; assay type: cell-based; conditions: human whole blood, read-out: INFg Whole Blood Normalized Agonist EC50;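 note: blood from healthy donors exposed to compound for 1 h before stimulation with anti-CD3 and anti-CD28 at 1 µg/mL each, IFN-γ quantified in supernatant by AlphaLISA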
Protocol: Human Whole Blood IFN-γ Assay
Human venous whole blood (22.5 μL per well), obtained from healthy donors, was pre-treated with compounds for one hour at 37° C. in a humidified 95% air/5% CO2 incubator. The blood was stimulated with 2.5 μL anti-human CD3 and anti-CD28 mAb at a final concentration of 1 μg/mL each for 24 hours at 37° C. IFN-γ in the supernatants was measured using AlphLISA kit (Cat # AL217).

human DGKζ = target: T2, human DGKζ (Homo sapiens, UniProt Q13574); test: DGKζ LIPGLO assay (extruded liposome substrate), in vitro DGK inhibition; assay type: biochemical; conditions: read-out: DGKz LIPGLO IC50
T2 construct: TVMV protease cleavage site (C); Hexa-His (C); made in house; host or cells: Sf9 insect cells (baculovirus, Bac-to-Bac)

[1] = normalized to 3 μM reference compound with anti-CD3 plus anti-CD28 as 100% activation
[2] = Homo sapiens, 24 h, normalized to 3 μM reference compound with anti-CD3 plus anti-CD28 as 100% activation
[3] = anti-CD3 plus anti-CD28, 24 hours, 3 μM reference compound = 100% activation
[4] = Homo sapiens, 24 h, anti-CD3 plus anti-CD28, 24 hours, 3 μM reference compound = 100% activation

T1 sequence (P23743 with tags, fused parts or gaps): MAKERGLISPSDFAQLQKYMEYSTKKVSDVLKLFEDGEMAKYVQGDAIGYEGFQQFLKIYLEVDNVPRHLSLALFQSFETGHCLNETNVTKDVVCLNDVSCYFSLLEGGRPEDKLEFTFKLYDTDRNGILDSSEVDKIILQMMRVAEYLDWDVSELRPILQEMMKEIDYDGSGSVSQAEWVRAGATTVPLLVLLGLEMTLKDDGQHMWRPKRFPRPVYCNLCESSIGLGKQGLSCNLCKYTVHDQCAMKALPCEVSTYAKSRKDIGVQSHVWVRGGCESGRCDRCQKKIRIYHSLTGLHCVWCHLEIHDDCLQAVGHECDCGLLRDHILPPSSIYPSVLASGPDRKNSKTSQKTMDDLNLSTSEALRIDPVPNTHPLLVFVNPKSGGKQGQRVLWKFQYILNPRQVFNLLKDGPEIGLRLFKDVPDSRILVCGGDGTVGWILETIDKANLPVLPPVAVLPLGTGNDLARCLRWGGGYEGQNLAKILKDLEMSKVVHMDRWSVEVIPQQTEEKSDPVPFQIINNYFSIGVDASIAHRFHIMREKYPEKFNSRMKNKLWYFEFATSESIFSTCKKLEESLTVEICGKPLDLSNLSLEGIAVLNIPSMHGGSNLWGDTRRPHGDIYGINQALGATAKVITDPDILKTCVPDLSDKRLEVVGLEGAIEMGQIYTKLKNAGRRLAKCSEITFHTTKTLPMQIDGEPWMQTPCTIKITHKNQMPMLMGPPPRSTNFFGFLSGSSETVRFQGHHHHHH
T2 sequence (Q13574 with tags, fused parts or gaps isoform Q13574-4): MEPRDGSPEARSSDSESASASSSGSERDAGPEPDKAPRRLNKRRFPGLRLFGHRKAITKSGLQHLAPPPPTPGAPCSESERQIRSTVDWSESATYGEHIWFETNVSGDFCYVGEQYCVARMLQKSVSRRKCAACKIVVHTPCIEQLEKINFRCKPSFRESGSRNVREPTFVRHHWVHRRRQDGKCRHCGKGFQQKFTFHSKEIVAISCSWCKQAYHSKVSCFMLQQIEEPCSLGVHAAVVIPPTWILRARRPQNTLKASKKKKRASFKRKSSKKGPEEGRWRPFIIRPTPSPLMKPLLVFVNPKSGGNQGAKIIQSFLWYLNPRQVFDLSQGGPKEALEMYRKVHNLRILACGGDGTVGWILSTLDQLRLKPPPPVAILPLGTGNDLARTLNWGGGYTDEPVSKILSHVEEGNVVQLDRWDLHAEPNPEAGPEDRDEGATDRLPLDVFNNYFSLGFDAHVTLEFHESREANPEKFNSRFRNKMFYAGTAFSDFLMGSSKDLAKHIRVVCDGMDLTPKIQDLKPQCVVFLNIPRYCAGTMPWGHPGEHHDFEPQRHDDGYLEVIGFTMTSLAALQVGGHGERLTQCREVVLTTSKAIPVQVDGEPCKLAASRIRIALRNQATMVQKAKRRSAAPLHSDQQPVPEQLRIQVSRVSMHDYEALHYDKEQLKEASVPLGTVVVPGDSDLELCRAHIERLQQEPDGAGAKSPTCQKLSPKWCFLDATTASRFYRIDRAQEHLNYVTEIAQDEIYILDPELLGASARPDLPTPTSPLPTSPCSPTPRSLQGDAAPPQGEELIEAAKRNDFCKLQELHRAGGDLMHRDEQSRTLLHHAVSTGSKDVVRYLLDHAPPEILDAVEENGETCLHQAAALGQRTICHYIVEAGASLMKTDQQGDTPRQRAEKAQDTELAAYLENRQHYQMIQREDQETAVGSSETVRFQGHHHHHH

| SMILES | IC50 (human DGKα; liposome (LIPGLO) assay) [nM] | EC50 (Human venous whole blood; [1]) [nM] | IC50 (human DGKζ; liposome (LIPGLO) assay) [nM] | EC50 (Human venous whole blood; [2]) [nM] | IC50 (human DGKα; DGKα liposome (LIPGLO) assay) [nM] | EC50 (Human venous whole blood; [3]) [nM] | IC50 (human DGKζ; DGKζ liposome (LIPGLO) assay) [nM] | EC50 (Human venous whole blood; [4]) [nM] |
| --- | --- | --- | --- | --- | --- | --- | --- | --- |
| CC[C@@H]1CN(c2cc(=O)n(C)c3ccc(C#N)nc23)[C@@H](C)CN1C(C)c1ccc(C(F)(F)F)cc1F (single isomer, unassigned) [Example 1086] | 6200 | 2500 | 2100 | – | – | – | – | – |
| CC[C@H]1CN(C(c2ccc(C)cc2)c2ccc(C)cc2)[C@H](C)CN1c1cc(=O)n(C)c2ccc(C#N)nc12 [Example 1119] | 1000 | – | 430 | 17000 | – | – | – | – |
| Cc1ccc(C(c2ccc(C)c(Cl)c2)N2C[C@H](C)N(c3cc(=O)n(C)c4ccc(C#N)nc34)C[C@H]2C)nc1 (stereo partly drawn) [Example 399, 8-((2S,5R)-4-((3-chloro-4-methylphenyl)(5-methylpyridin-2-yl)methyl)-2,5-dimethylpiperazin-1-yl)-5-methyl-6-oxo-5,6-dihydro-1,5-naphthyridine-2-carbonitrile] | 2300 | 570 | 690 | – | – | – | – | – |
| CC(c1ccc(C#N)cc1F)N1C[C@H](C)N(c2cc(=O)n(C)c3ccc(C#N)nc23)C[C@H]1C (single isomer, unassigned) [Example 1227] | 51 | 670 | 110 | – | – | – | – | – |
| CC(c1nc(C2CC2)no1)N1C[C@H](C)N(c2c(C#N)c(=O)n(C)c3ccc(C#N)nc23)C[C@H]1C (single isomer, unassigned) [Example 1306] | 9400 | – | 1100 | 2900 | – | – | – | – |
| CC[C@H]1CN(C(c2ccc(F)cc2)c2ccc(C#N)cc2)[C@H](COC)CN1c1cc(=O)n(C)c2ccc(C#N)nc12 (single isomer, unassigned) [Example 1171] | 1500 | 170 | 350 | – | – | – | – | – |
| Cc1cc(C(c2ccc(F)cc2)N2C[C@H](C)N(c3cc(=O)n(C)c4ccc(C#N)nc34)C[C@H]2C)no1 (single isomer, unassigned) [Example 734] | – | – | – | – | 180 | 1400 | 290 | – |
| Cc1ccc(C(c2ccc(C)cc2)N2CCN(c3c(C#N)c(=O)n(C)c4ccc(C#N)nc34)C[C@H]2C)cc1 [Example 870] | – | – | – | – | 2500 | – | 310 | 1400 |
| C[C@@H]1CN(c2c(C#N)c(=O)n(C)c3ccc(C#N)nc23)CCN1C(c1ccc(F)cc1)c1cn(C)cn1 (single isomer, unassigned) [Example 1026] | 20000 | 20000 | 65000 | – | – | – | – | – |
| CCC(c1ccc(OC(F)(F)F)cc1F)N1C[C@H](C)N(c2cc(=O)n(C)c3ccc(C#N)nc23)C[C@H]1C (single isomer, unassigned) [Example 441] | 1500 | 7900 | 2400 | – | – | – | – | – |
| C[C@@H]1CN(c2cc(=O)n(C)c3ccc(C#N)nc23)[C@@H](C)CN1C(c1ccc(F)cc1)c1cscn1 (stereo partly drawn) [Example 722] | – | – | – | – | 120 | 840 | 560 | – |
| CC(C)Oc1ccc(C(C)N2C[C@H](C)N(c3cc(=O)n(C)c4ccc(C#N)nc34)C[C@H]2C)cn1 (single isomer, unassigned) [Example 1325] | 1300 | 1800 | 910 | – | – | – | – | – |
| COc1cc(F)ccc1C(C)N1C[C@H](C)N(c2cc(=O)n(C)c3ccc(C#N)nc23)C[C@H]1C (single isomer, unassigned) [Example 1237] | 6100 | 12000 | 580 | – | – | – | – | – |
| C[C@@H]1CN(c2cc(=O)n(C)c3ccc(C#N)nc23)[C@@H](C)CN1C(c1ccc(F)cc1)c1cccc(C(F)(F)F)n1 (stereo partly drawn) [Example 678] | 3600 | 440 | 1500 | – | – | – | – | – |
| C[C@@H]1CN(c2cc(=O)n(C)c3ccc(C#N)nc23)[C@@H](C)CN1C(c1ccc(F)cc1)c1nc(C2CN(C)C2)no1 (single isomer, unassigned) [Example 1299] | 89000 | 15000 | 26000 | – | – | – | – | – |
| C[C@@H]1CN(c2cc(=O)n(C)c3ccc(C#N)nc23)[C@@H](C)CN1C(c1ccc(F)cc1)c1nc(C(C)(C)C)co1 (single isomer, unassigned) [Example 779] | – | – | – | – | 110 | – | 12 | 10 |
| CC[C@H]1CN(C(c2ccc(F)cc2)c2ccc(C#N)cc2)[C@H](C)CN1c1cc(=O)n(C)c2ccc(C#N)nc12 (stereo partly drawn) [Example 1124] | 880 | 1400 | 3100 | – | – | – | – | – |
| C[C@@H]1CN(c2cc(=O)n(C)c3ccc(C#N)nc23)[C@@H](C)CN1C(c1ccc(F)cc1)c1nc(C2CC2)cs1 (single isomer, unassigned) [Example 701] | 210 | 50 | 32 | – | – | – | – | – |

| SMILES | IC50 (human DGKα; liposome (LIPGLO) assay) [nM] | EC50 (Human venous whole blood; [1]) [nM] | IC50 (human DGKζ; liposome (LIPGLO) assay) [nM] | EC50 (Human venous whole blood; [2]) [nM] | IC50 (human DGKα; DGKα liposome (LIPGLO) assay) [nM] | EC50 (Human venous whole blood; [3]) [nM] | IC50 (human DGKζ; DGKζ liposome (LIPGLO) assay) [nM] | EC50 (Human venous whole blood; [4]) [nM] |
| --- | --- | --- | --- | --- | --- | --- | --- | --- |
| C[C@@H]1CN(c2c(C#N)c(=O)n(C)c3ccc(C#N)nc23)CCN1C(c1ccc(F)cc1)c1cccc2c1OC(F)(F)O2 (single isomer, unassigned) [Example 940] | – | – | – | – | 25000 | 2200 | 7200 | – |
| C[C@@H]1CN(c2c(C#N)c(=O)n(C)c3ccc(C#N)nc23)[C@@H](C)CN1C(c1ccc(F)cc1)c1ccns1 (single isomer, unassigned) [Example 854] | – | – | – | – | 5100 | – | 1900 | 10000 |
| COC[C@@H]1CN(c2cc(=O)n(C)c3ccc(C#N)nc23)[C@@H](C)CN1C(c1ccc(F)cc1)c1ccon1 (single isomer, unassigned) [Example 1400] | 53 | 120 | 20 | – | – | – | – | – |
| CCc1ccccc1C(c1ccc(F)cc1)N1C[C@H](C)N(c2c(C#N)c(=O)n(C)c3ccc(C#N)nc23)C[C@H]1C (single isomer, unassigned) [Example 810] | – | – | – | – | 240000 | 20000 | 23000 | – |
| C[C@@H]1CN(c2cc(=O)n(C)c3ccc(C#N)nc23)[C@@H](C)CN1C(CO)c1ccc(C(F)(F)F)cn1 (single isomer, unassigned) [Example 1280] | 1300 | – | 8500 | 9900 | – | – | – | – |
| COC(=O)c1cccc(C(C)N2C[C@H](C)N(c3c(C#N)c(=O)n(C)c4ccc(C#N)nc34)C[C@H]2C)c1 (single isomer, unassigned) [Example 795] | – | – | – | – | 13000 | – | 160000 | 20000 |
| CCC(c1ccc(OC(F)(F)F)cc1F)N1C[C@H](C)N(c2cc(=O)n(C)c3ccc(C#N)nc23)C[C@H]1CC (single isomer, unassigned) [Example 421] | 7800 | 2600 | 1800 | – | – | – | – | – |
| C[C@@H]1CN(c2cc(=O)n(C)c3ccc(C#N)nc23)[C@@H](C)CN1Cc1cccc(OC(F)(F)F)c1 [Example 586] | 7300 | – | 5600 | 2300 | – | – | – | – |
| COC(=O)NC[C@@H]1CN(c2cc(=O)n(C)c3ccc(C#N)nc23)[C@@H](C)CN1C(c1ccc(F)cc1)c1ccc(F)cc1 [Example 1166, methyl (((2R,5S)-1-(bis(4-fluorophenyl)methyl)-4-(6-cyano-1-methyl-2-oxo-1,2-dihydro-1,5-naphthyridin-4-yl)-5-methylpiperazin-2-yl)methyl)carbamate] | 1800 | – | 370 | 350 | – | – | – | – |
| C[C@@H]1CN(c2c(C#N)c(=O)n(C)c3ccc(C#N)nc23)CCN1C(c1ccc(F)cc1)c1ccnc(C(C)(C)C)n1 (stereo partly drawn) [Example 321, 8-((3R)-4-((2-(tert-butyl)pyrimidin-4-yl)(4-fluorophenyl)methyl)-3-methylpiperazin-1-yl)-5-methyl-6-oxo-5,6-dihydro-1,5-naphthyridine-2,7-dicarbonitrile] | 4300 | – | 240 | 950 | – | – | – | – |
| CC[C@H]1CN(C(c2ccc(F)cc2)c2cccc(C(F)(F)F)n2)[C@H](C)CN1c1cc(=O)n(C)c2ccc(C#N)nc12 (single isomer, unassigned) [Example 1133] | 1600 | – | 130 | 570 | – | – | – | – |
| CC(c1ccc(Br)cc1)N1CCN(c2c(C#N)c(=O)n(C)c3ccc(C#N)nc23)C[C@H]1C (single isomer, unassigned) [Example 975] | – | – | – | – | 330 | 20000 | 83000 | – |
| CC(c1cc(OC(F)F)ccc1F)N1C[C@H](C)N(c2cc(=O)n(C)c3ccc(C#N)nc23)C[C@H]1C (single isomer, unassigned) [Example 1229] | 300 | – | 160 | 510 | – | – | – | – |
| CC[C@H]1CN(C(c2ccc(F)cc2)c2cccc(C(F)(F)F)n2)[C@H](CC)CN1c1cc(=O)n(C)c2ccc(C#N)nc12 (single isomer, unassigned) [Example 1046] | 90 | 140 | 54 | – | – | – | – | – |
| Cc1ccc(C(c2ncccc2F)N2CCN(c3c(C#N)c(=O)n(C)c4ccc(C#N)nc34)C[C@H]2C)cc1 (single isomer, unassigned) [Example 890] | – | – | – | – | 11000 | – | 8400 | 6600 |
| CC[C@@H]1CN(c2cc(=O)n(C)c3ccc(C#N)nc23)[C@@H](C)CN1C(C)c1ccc(C#N)cc1 (single isomer, unassigned) [Example 1345] | 41 | 480 | 75 | – | – | – | – | – |
| CC[C@H]1CN(C(c2cccc(F)c2)c2ccc(F)cn2)[C@H](CC)CN1c1cc(=O)n(C)c2ccc(C#N)nc12 (single isomer, unassigned) [Example 1041] | 36 | – | 43 | 230 | – | – | – | – |
| CC[C@H]1CN(C(c2cccc(F)c2)c2ccc(F)cn2)[C@H](CC)CN1c1cc(=O)n(C)c2ccc(C#N)nc12 (single isomer, unassigned) [Example 1042] | 170 | 130 | 63 | – | – | – | – | – |
